Test results taken from the METLIN SMRT retention time set (Domingo-Almenara et al. 2019).

Experiment: gradient 5% acetonitrile 3 min, to 50% in 2 min, to 85% in 15 min, held 3 min, 100 µL/min
Details: column: Zorbax Extend-C18 2.1 x 50 mm; eluents: water / acetonitrile, 0.1% formic acid
Outline: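 Pure standards were run in mixtures of ~100 molecules by HPLC coupled to a quadrupole time-of-flight mass spectrometer. The column was a Zorbax Extend-C18 (2.1 × 50 mm, 1.8 μm) at 100 μL/min, with water and acetonitrile each containing 0.1% formic acid, in positive and negative ionization mode. Dead and dwell volumes were 40 μL and 900 μL. Retention time was taken from computationally picked adduct peaks, each manually inspected, with data collected over 3 months.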

| SMILES | RP-LC retention time |
| --- | --- |
| CNC(=O)[C@@H]1CN(C(=O)c2cc(C)no2)C[C@H]1COC | 558 s |
| O=C(NCCOc1ccc2c(c1)OCO2)C1CCCC1 | 741 s |
| Cc1cc(C)cc(-c2nnc(Cc3nc(-c4ccc5c(c4)OCO5)no3)o2)c1 | 1070 s |
| CCN1c2cc(Cl)ccc2C(=O)NC12CCN(C(=O)Nc1ccc(C)cc1C)CC2 | 968 s |
| COc1ccc(CC(=O)N2CCN(c3ccc(-c4nc(C)cs4)cn3)CC2)cc1 | 851 s |
| O=C(c1ccc(-c2ccsc2)nc1)N1CCN(C2CCCCC2)CC1 | 625 s |
| Cc1c(S(=O)(=O)NC2CC2)c(C)n(C)c1-c1nnc(C2CCC2)o1 | 787 s |
| Cc1nc(C)c(C(=O)Nc2ccc(F)c(C)c2)s1 | 810 s |
| CCC(C(=O)NCCc1cnc[nH]1)n1c2ccccc2c2cnn(C)c(=O)c21 (stereo unspecified) | 603 s |
| CCOc1ccc(-c2csc(Nc3ccccn3)n2)cc1 | 910 s |
| CC(=O)N1CCc2cc(S(=O)(=O)CCC(=O)N3CCC(CCOc4ccccc4)C3)ccc21 (stereo unspecified) | 822 s |
| COCCCNC(=O)C1c2ccccc2C(=O)N1Cc1cccc(Br)c1 (stereo unspecified) | 750 s |
| COc1cc([C@@H]2c3cc4c(cc3[C@H](O)[C@@H](CO)[C@@H]2C(=O)NCc2cc(F)ccc2F)OCO4)cc(OC)c1OC | 718 s |
| Cc1ccc(NC(=O)Nc2cccc(-c3ccc(N4CCOCC4)nn3)c2)cc1F | 739 s |
| Cc1cc(SCC(=O)Nc2ccccc2Br)nc(-c2ccc(F)cc2)n1 | 1170 s |
| COc1cc(NC(=O)COc2cc(C)nc(-c3ccc(C(F)(F)F)cc3)n2)cc(OC)c1OC | 1080 s |
| CCOc1ccc(-n2ccn3cc(-c4ccc(C)cc4C)nc3c2=O)cc1 | 942 s |
| CC1(C(=O)NCc2ccc(Cl)cc2)CN(S(C)(=O)=O)CC(=O)N1Cc1ccc(F)cc1 (stereo unspecified) | 814 s |
| O=C(NC1CCN(c2cc(-c3ccc(F)cc3)[nH]n2)C1)c1ccc2[nH]ccc2c1 (stereo unspecified) | 689 s |
| Cc1cc(C)cc(N2CCC(NC(=O)c3ccc(Br)o3)C2=O)c1 (stereo unspecified) | 894 s |
| COc1ccc(S(=O)(=O)N2CCc3c(c(-c4nnc(-c5ccc(F)cc5)o4)nn3C)C2)cc1 | 945 s |
| CCn1c(CN(C)C(=O)Nc2ccc(Br)cc2)nc2cc(C(=O)N(C)C)ccc21 | 657 s |

| SMILES | RP-LC retention time |
| --- | --- |
| Cc1cc(Cl)ccc1NC(=O)C1CCN(S(=O)(=O)c2cc(C(=O)N3CCCC3)cs2)CC1 | 892 s |
| CC1CCCCN1S(=O)(=O)c1ccc2c(c1)CCC(=O)N2CC(=O)NCc1ccccc1 (stereo unspecified) | 876 s |
| Cc1ccc(-c2ncccc2CNS(=O)(=O)Cc2ccccc2F)cc1 | 693 s |
| CS(=O)(=O)N1CCCc2cc(C(=O)NCc3cccnc3)ccc21 | 574 s |
| O=C(Nc1nc2c(s1)CCCC2C(=O)N1CCc2ccccc21)c1ccc2c(c1)OCO2 (stereo unspecified) | 949 s |
| Cc1cc(N2CCCC2)nc(N2CCN(C(=O)C3CCCCC3)CC2)n1 | 693 s |
| Cc1nc(-c2nc3c(s2)CN(C(=O)COc2ccc(Cl)cc2)CC3)cs1 | 922 s |
| CC(=O)Nc1nsc(N2CCC(C(=O)N3CCN(c4cccc(C)c4C)CC3)CC2)n1 | 806 s |
| COC(=O)c1ccc(NC(=O)CSc2ccc(NC(=O)c3ccccc3F)nn2)cc1 | 805 s |
| O=C(Nc1ccc2c(c1)CN(S(=O)(=O)c1ccccc1)CC2)NC1CCCCC1 | 901 s |
| COc1ccc(NC(=O)c2ccc3[nH]c4c(c3c2)CN(C(=O)C2CCC2)CC4)c(OC)c1 | 807 s |
| COc1cccc(NC(=O)Cn2nc3cc(C)nc(Nc4ccc(F)c(C)c4)n3c2=O)c1 | 1040 s |
| COc1cccc(-n2c(CN3CCN(c4ccccn4)CC3)nc3ccc([N+](=O)[O-])cc3c2=O)c1 | 647 s |
| CCc1cccc(NC(=O)C2CCN(S(=O)(=O)c3ccc4c(c3)CCCC(=O)N4)CC2)c1 | 735 s |
| Cc1ccc(CNC(=O)CN2CCN(Cc3ccccc3C)C(=O)C2=O)cc1 | 779 s |
| Cc1noc2nc(CCC(=O)NC(C)c3ccccc3)nc(N3CCC(C)CC3)c12 (stereo unspecified) | 941 s |
| CCc1cccc(NC(=O)C2CCN(S(=O)(=O)c3cc(C(=O)N4CCCC4)n(C)c3)CC2)c1 | 872 s |
| CCn1nc2ccc(S(=O)(=O)N3CCCCC3)cn2c1=O | 744 s |
| CCOC(=O)COc1cc(-c2ccc(C)cc2)nc2ccc(NC(=O)COc3ccccc3)cc12 | 902 s |
| O=C(Cn1nc2n(c1=O)CCCCC2)Nc1ccccc1C(F)(F)F | 713 s |
| Cc1cc(N2CCN(C(=O)c3cccc(N(C)C)c3)CC2)nc2nnc(C)n12 | 557 s |
| Cc1ccc(-c2nc(-c3ccc4c(c3)ncn4CCN3CCOCC3)no2)c(C)c1 | 698 s |

| SMILES | RP-LC retention time |
| --- | --- |
| CN(C)c1ccc(-c2nc3ccc(Cl)cn3c2Nc2ccc3c(c2)OCCO3)cc1 | 744 s |
| O=C(Cc1ccc(NC(=O)c2ccsc2)cc1)NCc1cccs1 | 725 s |
| Cn1nc(-c2nnc(-c3ccccc3)o2)c2c1CCN(S(=O)(=O)c1ccccc1Cl)C2 | 938 s |
| O=C(O)c1cnc(N2CCSCC2)nc1-c1cccc(Cl)c1 | 964 s |
| COc1ccc(-c2cn3c(CC(=O)NCc4ccccc4)csc3n2)cc1OC | 693 s |
| Cn1c(=O)c(N2CCCC(C(=O)N3CCCCCC3)C2)nc2cccnc21 (stereo unspecified) | 918 s |
| O=C(c1nc(-c2ccnc(N3CCCCC3)c2)no1)N1CCCC1 | 673 s |
| O=C(CCc1conc1-c1ccc(F)cc1)NC1CCCCC1 | 927 s |
| Cc1cccc(-c2nc(Cn3nnc(C(=O)NCc4ccc(F)c(Cl)c4)c3C)c(C)o2)c1 | 1180 s |
| O=C(Nc1cc(Cl)ccc1F)C1CCCN(c2nnc3ccccn23)C1 (stereo unspecified) | 649 s |
| Cc1nc(C)c(C(=O)Nc2nc(-c3ccc4c(c3)CCCC4)cs2)s1 | 1170 s |
| CCc1ccc(C2=C(C)C(N3CCCN(C(=O)c4ccccn4)CC3)=NS2(=O)=O)cc1 | 788 s |
| CC(=O)N1CCc2ccccc2C1C(=O)NCc1cc(F)ccc1F (stereo unspecified) | 648 s |
| O=C(C1CCC1)N1CC(c2nc(-c3ccc(F)cc3)no2)C2(CCOCC2)C1 (stereo unspecified) | 891 s |
| O=C(c1ccc2cc[nH]c2c1)N1C[C@@H]2C[C@H]1C[C@@H]2NS(=O)(=O)c1cccs1 | 754 s |
| O=C(CC1CCCN(c2cnn(CC3CC3)c(=O)c2)C1)NC1CC1 (stereo unspecified) | 651 s |
| CCc1cc(=O)n(CC(=O)Nc2ccc(F)cc2)c(N)n1 | 596 s |
| Cc1ccc(Nc2c(-c3ccc(N(C)C)cc3)nc3ncccn23)c(C)c1 | 782 s |
| COc1cccc(-c2cc(C(=O)N3CCN(c4ccccc4F)CC3)n(C)n2)c1 | 772 s |
| c1ccc(CNc2nc(C3CC3)nc3c2CCC3)nc1 | 540 s |
| CCOc1ccccc1NC(=O)CN1C(=O)CC(c2cccs2)=Nc2ccccc21 | 1050 s |
| COc1ccc(CC(=O)N2C[C@@H]3C[C@H]2C[C@@H]3NC(=O)c2cccs2)cc1Cl | 764 s |

| SMILES | RP-LC retention time |
| --- | --- |
| COc1cc(NC(=O)C2=C(C)OCCS2)c(Cl)cc1C(=O)N1CCN(C2CCCCC2)CC1 | 684 s |
| Cc1c(Cl)cccc1NC(=O)N1CCC(OC2CCN(S(C)(=O)=O)CC2)CC1 | 743 s |
| Cc1ccc(C2Cn3nnc(-c4nc(-c5ccsc5)no4)c3CO2)c(C)c1 (stereo unspecified) | 1220 s |
| Cc1cc(N(C)C)n2nc(-c3ccc(C(C)(C)C)cc3)nc2n1 | 927 s |
| Cc1nn(C)cc1CNC(=O)c1cnn2c(C(F)F)cc(-c3ccccc3)nc12 | 786 s |
| CC1CCN(S(=O)(=O)N2CCC(C(=O)N3CCCC(c4nc(C5CCOCC5)no4)C3)CC2)CC1 (stereo unspecified) | 878 s |
| Cc1ccc(S(=O)(=O)N2CCC(n3cnnc3C)CC2)c(C)c1 | 713 s |
| Cc1ccc(-c2noc(C3CCCN3C(=O)CNC(=O)C(c3ccccc3)c3ccccc3)n2)cc1 (stereo unspecified) | 1100 s |
| COCCN1C(=O)[C@H]2CN(C(=O)Nc3ccccc3)C[C@H]2C1=O | 732 s |
| O=C(C1CC1)N1CCCC(OCc2nc(-c3cnccn3)no2)C1 (stereo unspecified) | 651 s |
| Cc1ccc2nc(-c3ccccc3F)c(Nc3ccc(Cl)cc3)n2c1 | 754 s |
| CCN1C(=O)c2cccnc2Sc2cc(NC(=O)Cc3cccc(F)c3)ccc21 | 826 s |
| COc1ccc2c(c1)C1(CCN(S(=O)(=O)c3ccc(F)cc3F)C1)C(=O)N2C (stereo unspecified) | 927 s |
| COC(=O)c1ccccc1NC(=O)N1CCOc2ccc(C)cc21 | 1140 s |
| Cc1noc(-c2ccc(-n3ncc(C(=O)N4CCN(c5ccccn5)CC4)c3C)nc2)n1 | 624 s |
| Cc1ccc(CNC(=O)C2(C)CCCN(C(=O)Nc3ccc(Cl)cc3)C2)cc1 (stereo unspecified) | 1010 s |
| CSc1ccc(CNC(=O)c2nnc(-c3ccc(S(=O)(=O)N(C)C)cc3)o2)cc1 | 889 s |
| COc1ccc(NC(=O)c2ccc(-n3cnc(NC(=O)C4CC4)c3)cc2)cc1OC | 645 s |
| O=S(=O)(Cc1ccccc1)N1CCC(Oc2nc3ccccc3s2)CC1 | 1060 s |
| O=C(NCCc1csc(-c2cccs2)n1)C1CCN(S(=O)(=O)c2ccccc2F)CC1 | 872 s |
